By ED50 is commonly meant the midpoint of the dose-response relation. A word on the inhibition: it is the relative decrease from the control value, in per cent.

Consider one compound from patent US11033531B2, “Use of carbamate compound for preventing, alleviating, or treating tremors or tremor syndrome” (SK BIOPHARMACEUTICALS CO., LTD., priority 2016, dated 2021).

This assay concerns oxotremorine-induced tremor in rats. Kind of assay: Oxotremorine-induced tremor in rats. Conditions: for Number of tremor behaviors: male SD rats, behaviors of at least 0.5 s in 2,048 s, mean±SEM. Type of assay: in vivo, rat. The source says: As a model for assessing the potential efficacy of therapeutic agents that can effectively treat essential tremor and other tremor syndromes, oxotremorine-induced tremor in rats was used [B Cox, D Potkonjak, Effects of drugs on tremor and increase in brain acetylcholine produced by oxotremorine in the rat, Br. J. Pharmac., 1970, 38, 171-180].
Male SD rats (CrjBgi:CD(SD)IGS) were purchased from Orient Bio, Inc. of Korea, and placed in a wire mesh cage under conditions of ambient temperature of 20 to 24° C., 55 to 75% relative humidity, an automatically controlled light-and-darkness cycle of 12 hours and free access to feed (purchased from Agri Brands Purina Korea, Inc.) and water. The rats were housed and maintained in accordance with the Laboratory Animal Care Standards of the Institutional Animal Care and Use Committee (IACUC). After about one week of stabilization, rats weighing 200 to 240 g were used in the experiment. The rats to be used for the experiment were fasted by removing the feed 16 hours before the experiment, and placed in a tremor measurement device (Tremor Monitor™, San Diego Instruments, CA) 3 hours before the experiment and adapted for 10 minutes.
The test compound was prepared by dissolving it in 30% polyethylene glycol 400 (purchased from Sigma) used as a vehicle 30-45 minutes before each experiment. The vehicle and the test compound (3, 10 and 30 mg/kg dose) were administered into the oral cavity, respectively, in a volume of 4 ml per 1 kg body weight of the rat. After 60 minutes, oxotremorine (oxotremorine sesquifumarate salt, 1-(4-[1-Pyrrolidinyl]-2-butynyl)-2-pyrrolidinone sesquifumarate; purchased from Sigma) dissolved in saline and prepared in a volume of […] or a saline were subcutaneously injected into the back of the rat neck in a volume of 2 ml per 1 kg body weight of the rat. Oxotremorine-administered rats were immediately placed in a tremor measurement device (filter frequency 12 Hz, band-width 6 Hz, filter number 2), and the number of tremor behaviors that progressed for at least 0.5 seconds in 2,048 seconds were automatically measured and recorded. The number of rats per group was 16.
All data were expressed as mean±SEM. The number of oxotremorine-induced tremor behaviors in the group treated with the test compound was expressed as % inhibition compared to the vehicle group. Statistical analysis of the number of tremor behaviors between groups was performed using one-way ANOVA (one-way analysis of variance) and Dunnett's multiple comparison test by using the GraphPad Prism ver. 4.0 program. The mean number of tremor behaviors in the vehicle/oxotremorine group was observed as 29.8±8.1, and the mean number of tremor behaviors in the vehicle/saline group was observed as 9.2±2.5.

Molecules are shown by their SMILES. Marks after values point to notes of the source that are not given here.

For `NC(=O)O[C@@H](Cn1ncnn1)c1ccccc1Cl` [Test compound], the ED50 (Rattus norvegicus, po, rats, inhibition of oxotremorine-induced tremor behaviors, read-out: Calculated Median Effective Dose (ED50)) is 1.67 mg/kg. The inhibition at 3 mg/kg (Rattus norvegicus, po, 3 mg/kg p.o., rats, vs vehicle/oxotremorine group, corrected for vehicle/saline group, read-out: Inhibition rate compared to negative group) is 50.3%. Besides, for the setting “Rattus norvegicus, po, 10 mg/kg p.o., rats, vs vehicle/oxotremorine group, corrected for vehicle/saline group, read-out: Inhibition rate compared to negative group”, the inhibition at 10 mg/kg was determined as 78.7%. In addition, the inhibition at 30 mg/kg (Rattus norvegicus, po, 30 mg/kg p.o., rats, vs vehicle/oxotremorine group, corrected for vehicle/saline group, read-out: Inhibition rate compared to negative group) was determined as 130%. Also, the “Number of tremor behaviors” value is given as 19.4 ± 3.7 (3 mg/kg p.o. 60 min before oxotremorine s.c.), 13.6 ± 0.1^2) (10 mg/kg p.o. 60 min before oxotremorine s.c.) and 2.9 ± 0.5^1) (30 mg/kg p.o. 60 min before oxotremorine s.c.). Further, the “Pharmacological activity in the oxotremorine-induced tremor behavior model” value (rats, 3, 10 and 30 mg/kg p.o.) is given as “significant pharmacological activity”.
